{"source": "patent US10821195B2", "about": "“Compositions for therapeutics, targeted PET imaging and methods of their use” (Memorial Sloan Kettering Cancer Center, priority 2015, dated 2020)", "key": {"[1]": {"test": "Stability of ^89Zr complexes in human serum at 37° C. for 7 d (ITLC, SEC)", "conditions": "bare ligand complexes, one week", "method": "Seven day old samples of the Zr-ligand complexes were run down a size exclusion column to differentiate protein and ligand.\nSerum stability and immunoreactivity of ^89Zr-complexes were evaluated. To determine the stability in serum, ^89Zr-complexes were incubated in human serum at 37° C. for 7 d. The percentage of intact species was monitored by ITLC (Table 9).\n^89Zr-ligand and ^89Zr-ligand-antibody complexes were prepared according to the radiolabeling protocol as described above. For each ^89Zr complex, samples were made consisting of 900 μL human serum and 100 μL of the ^89Zr species and were placed in a heat block at 37° C. with agitation. Samples were monitored using radio-TLC before being added to the serum and then after 1 week of incubation. The stability of the complexes was measured as the percentage of ^89Zr that was retained at the origin of the ITLC strip and therefore still intact."}, "[2]": {"test": "EDTA transchelation challenge of ^89Zr complexes", "assay_type": "physicochemical", "conditions": "50-fold excess of EDTA, 37° C., various pHs, 7 days", "source_text": "(§1) In contrast, ^89Zr-HOPO is shown to be approximately impervious to the EDTA. […] This represents a significant improvement in the stability of the Zr-ligand complex at lower pH. […] Initially activity is seen in the bladder, gall bladder, and intestines."}, "[3]": {"test": "Biodistribution and clearance of ^89Zr-HOPO and ^89Zr-DFO in healthy mice", "assay_type": "in vivo, healthy athymic nude mice", "design": "biodistribution Spleen / biodistribution Stomach / biodistribution Large Intestine / biodistribution Small Intestine / biodistribution Kidney / biodistribution Bladder / biodistribution Muscle / biodistribution Bone / biodistribution Tail / biodistribution Blood / biodistribution Heart / biodistribution Lung / biodistribution Gall Bladder / biodistribution Liver: unit not given here", "source_text": "Significant uptake of ^89Zr-HOPO occurs in the gall bladder and intestines as well as the kidney. […] As ^89Zr-DFO is cleared exclusively through the kidneys and not through the hepatobiliary system, it is excreted from the body faster than ^89Zr-HOPO, as evidenced by the blood clearance curve (FIG. 10). While not wishing to be bound to theory, upon conjugation to an antibody, the pharmacokinetics of a ^89Zr-HOPO complex comprising ^89Zr-HOPO and an antibody can be superseded by those of the biomacromolecule, meaning that a difference in clearance pathways between ^89Zr-HOPO and ^89Zr-DFO should not be a concern. However, over the short circulation time of the Zr-ligand complexes, neither DFO nor HOPO show any signs of instability or bone accumulation."}, "FIG. 2": {"test": "FIG. 2", "source_text": "Table printed on a drawing sheet, FIG. 2\nas §1\nFirst reader's note: Cell hatching encodes the percent-intact class given in the legend; the values show stability of the radiometal-chelator complexes against EDTA transchelation."}}, "note": "Several values for one entry are separate records, joined by “and”; a condition that tells them apart may be missing. Equal entries are not always repeated.", "data": [{"smiles": "CC(=O)N1CCCCCNC(=O)CCC(=O)N2CCCCCNC(=O)CCC(=O)N(CCCCCN)[O][89Zr+]([O]1)[O]2", "note": "[^89Zr-DFO]", "values": [{"measurement": "stability in human serum (ITLC and SEC)", "setting": "[1]", "result": "stable in serum over 7 days"}, {"measurement": "stability to transchelation by EDTA", "setting": "[2]", "result": "susceptible to transchelation"}, {"measurement": "biodistribution Bladder", "setting": "[3]; 10 min", "result": "2.50 ± 0.48"}, {"measurement": "biodistribution Blood", "setting": "[3]; 10 min", "result": "5.11 ± 0.90"}, {"measurement": "biodistribution Bone", "setting": "[3]; 10 min", "result": "0.43 ± 0.10"}, {"measurement": "biodistribution Gall Bladder", "setting": "[3]; 10 min", "result": "1.57 ± 0.25"}, {"measurement": "biodistribution Heart", "setting": "[3]; 10 min", "result": "2.17 ± 0.62"}, {"measurement": "biodistribution Kidney", "setting": "[3]; 10 min", "result": "14.44 ± 5.88"}, {"measurement": "biodistribution Large Intestine", "setting": "[3]; 10 min", "result": "0.43 ± 0.13"}, {"measurement": "biodistribution Liver", "setting": "[3]; 10 min", "result": "0.88 ± 0.49"}, {"measurement": "biodistribution Lung", "setting": "[3]; 10 min", "result": "2.16 ± 1.08"}, {"measurement": "biodistribution Muscle", "setting": "[3]; 10 min", "result": "0.73 ± 0.56"}, {"measurement": "biodistribution Small Intestine", "setting": "[3]; 10 min", "result": "0.94 ± 0.16"}, {"measurement": "biodistribution Spleen", "setting": "[3]; 10 min", "result": "0.37 ± 0.22"}, {"measurement": "biodistribution Stomach", "setting": "[3]; 10 min", "result": "0.62 ± 0.28"}, {"measurement": "biodistribution Tail", "setting": "[3]; 10 min", "result": "5.13 ± 2.92"}, {"measurement": "biodistribution Bladder", "setting": "[3]; 1 h", "result": "2.47 ± 1.30"}, {"measurement": "biodistribution Blood", "setting": "[3]; 1 h", "result": "0.10 ± 0.04"}, {"measurement": "biodistribution Bone", "setting": "[3]; 1 h", "result": "0.07 ± 0.04"}, {"measurement": "biodistribution Gall Bladder", "setting": "[3]; 1 h", "result": "0.47 ± 0.14"}, {"measurement": "biodistribution Heart", "setting": "[3]; 1 h", "result": "0.06 ± 0.02"}, {"measurement": "biodistribution Kidney", "setting": "[3]; 1 h", "result": "1.39 ± 0.55"}, {"measurement": "biodistribution Large Intestine", "setting": "[3]; 1 h", "result": "0.02 ± 0.01"}, {"measurement": "biodistribution Liver", "setting": "[3]; 1 h", "result": "0.24 ± 0.07"}, {"measurement": "biodistribution Lung", "setting": "[3]; 1 h", "result": "0.14 ± 0.04"}, {"measurement": "biodistribution Muscle", "setting": "[3]; 1 h", "result": "0.02 ± 0.01"}, {"measurement": "biodistribution Small Intestine", "setting": "[3]; 1 h", "result": "0.35 ± 0.17"}, {"measurement": "biodistribution Spleen", "setting": "[3]; 1 h", "result": "0.06 ± 0.02"}, {"measurement": "biodistribution Stomach", "setting": "[3]; 1 h", "result": "1.10 ± 0.51"}, {"measurement": "biodistribution Tail", "setting": "[3]; 1 h", "result": "0.26 ± 0.05"}, {"measurement": "biodistribution Bladder", "setting": "[3]; 4 h", "result": "1.22 ± 0.77"}, {"measurement": "biodistribution Blood", "setting": "[3]; 4 h", "result": "0.03 ± 0.01"}, {"measurement": "biodistribution Bone", "setting": "[3]; 4 h", "result": "0.04 ± 0.02"}, {"measurement": "biodistribution Gall Bladder", "setting": "[3]; 4 h", "result": "0.26 ± 0.15"}, {"measurement": "biodistribution Heart", "setting": "[3]; 4 h", "result": "0.03 ± 0.01"}, {"measurement": "biodistribution Kidney", "setting": "[3]; 4 h", "result": "1.10 ± 0.44"}, {"measurement": "biodistribution Large Intestine", "setting": "[3]; 4 h", "result": "0.62 ± 0.55"}, {"measurement": "biodistribution Liver", "setting": "[3]; 4 h", "result": "0.12 ± 0.03"}, {"measurement": "biodistribution Lung", "setting": "[3]; 4 h", "result": "0.04 ± 0.02"}, {"measurement": "biodistribution Muscle", "setting": "[3]; 4 h", "result": "0.01 ± 0.01"}, {"measurement": "biodistribution Small Intestine", "setting": "[3]; 4 h", "result": "0.04 ± 0.02"}, {"measurement": "biodistribution Spleen", "setting": "[3]; 4 h", "result": "0.03 ± 0.01"}, {"measurement": "biodistribution Stomach", "setting": "[3]; 4 h", "result": "0.06 ± 0.02"}, {"measurement": "biodistribution Tail", "setting": "[3]; 4 h", "result": "0.14 ± 0.08"}, {"measurement": "biodistribution Bladder", "setting": "[3]; 12 h", "result": "0.69 ± 0.31"}, {"measurement": "biodistribution Blood", "setting": "[3]; 12 h", "result": "0.01 ± 0.00"}, {"measurement": "biodistribution Bone", "setting": "[3]; 12 h", "result": "0.03 ± 0.01"}, {"measurement": "biodistribution Gall Bladder", "setting": "[3]; 12 h", "result": "0.16 ± 0.14"}, {"measurement": "biodistribution Heart", "setting": "[3]; 12 h", "result": "0.02 ± 0.00"}, {"measurement": "biodistribution Kidney", "setting": "[3]; 12 h", "result": "0.36 ± 0.13"}, {"measurement": "biodistribution Large Intestine", "setting": "[3]; 12 h", "result": "0.07 ± 0.05"}, {"measurement": "biodistribution Liver", "setting": "[3]; 12 h", "result": "0.06 ± 0.02"}, {"measurement": "biodistribution Lung", "setting": "[3]; 12 h", "result": "0.02 ± 0.01"}, {"measurement": "biodistribution Muscle", "setting": "[3]; 12 h", "result": "0.01 ± 0.00"}, {"measurement": "biodistribution Small Intestine", "setting": "[3]; 12 h", "result": "0.01 ± 0.01"}, {"measurement": "biodistribution Spleen", "setting": "[3]; 12 h", "result": "0.02 ± 0.01"}, {"measurement": "biodistribution Stomach", "setting": "[3]; 12 h", "result": "0.01 ± 0.00"}, {"measurement": "biodistribution Tail", "setting": "[3]; 12 h", "result": "0.13 ± 0.05"}, {"measurement": "biodistribution Bladder", "setting": "[3]; 24 h", "result": "0.56 ± 0.41"}, {"measurement": "biodistribution Blood", "setting": "[3]; 24 h", "result": "0.02 ± 0.02"}, {"measurement": "biodistribution Bone", "setting": "[3]; 24 h", "result": "0.06 ± 0.01"}, {"measurement": "biodistribution Gall Bladder", "setting": "[3]; 24 h", "result": "0.23 ± 0.21"}, {"measurement": "biodistribution Heart", "setting": "[3]; 24 h", "result": "0.02 ± 0.01"}, {"measurement": "biodistribution Kidney", "setting": "[3]; 24 h", "result": "1.12 ± 0.33"}, {"measurement": "biodistribution Large Intestine", "setting": "[3]; 24 h", "result": "0.02 ± 0.01"}, {"measurement": "biodistribution Liver", "setting": "[3]; 24 h", "result": "0.11 ± 0.02"}, {"measurement": "biodistribution Lung", "setting": "[3]; 24 h", "result": "0.04 ± 0.01"}, {"measurement": "biodistribution Muscle", "setting": "[3]; 24 h", "result": "0.01 ± 0.00"}, {"measurement": "biodistribution Small Intestine", "setting": "[3]; 24 h", "result": "0.02 ± 0.01"}, {"measurement": "biodistribution Spleen", "setting": "[3]; 24 h", "result": "0.02 ± 0.01"}, {"measurement": "biodistribution Stomach", "setting": "[3]; 24 h", "result": "0.01 ± 0.01"}, {"measurement": "biodistribution Tail", "setting": "[3]; 24 h", "result": "0.08 ± 0.02"}, {"measurement": "clearance route", "setting": "[3]; healthy mice", "result": "clears exclusively through the kidneys"}, {"measurement": "% INTACT STARTING SPECIES BY INCUBATION TIME | 1 h", "setting": "FIG. 2", "result": "99.9±0.2% and 97.1±0.8% and 86.6±1.5%"}, {"measurement": "% INTACT STARTING SPECIES BY INCUBATION TIME | 3 h", "setting": "FIG. 2", "result": "99.3±0.6% and 98.8±0.9% and 98.7±0.8% and 96.2±0.6% and 90.7±1.7% and 55.7±3.8%"}]}]}
